Assay results: ChEMBL document CHEMBL1697781, “Assessment of the health effects of chemicals in humans: II. Construction of an adverse effects database for QSAR modeling” (Curr Drug Discov Technol, 2004)

Experiments:
Details in all cases: human
Hepatotoxicity [1] = assay: FDA HLAED, liver enzyme composite activity
Hepatotoxicity [2] = assay: FDA HLAED, alkaline phosphatase increase
Hepatotoxicity [3] = assay: FDA HLAED, serum glutamic oxaloacetic transaminase (SGOT) increase
Hepatotoxicity [4] = assay: FDA HLAED, serum glutamic pyruvic transaminase (SGPT) increase
Hepatotoxicity [5] = assay: FDA HLAED, lactate dehydrogenase (LDH) increase
Hepatotoxicity [6] = assay: FDA HLAED, gamma-glutamyl transferase (GGT) increase
Wherever GGT Increase - Index Value is given: reference of the scale not given here.
Wherever LDH Increase - Index Value is given: reference of the scale not given here.

## N=C(N)NCC1COC2(CCCCC2)O1 (stereo unspecified)
Hepatotoxicity [1]
  Composite Activity - Active: 0
  Composite Activity - Marginal: 0
  Composite Activity - Score: Inactive
Hepatotoxicity [2]
  Alkaline Phosphatase Increase - Activity Score: Inactive
  Alkaline Phosphatase Increase - Index Value: 0
  Alkaline Phosphatase Increase - Number of Reports: < 4
Hepatotoxicity [3]
  SGOT Increase - Activity Score: Inactive
  SGOT Increase - Index Value: 0
  SGOT Increase - Number of Reports: < 4
Hepatotoxicity [4]
  SGPT Increase - Activity Score: Inactive
  SGPT Increase - Index Value: 0
  SGPT Increase - Number of Reports: < 4
Hepatotoxicity [5]
  LDH Increase - Activity Score: Inactive
  LDH Increase - Index Value: 0
  LDH Increase - Number of Reports: < 4
Hepatotoxicity [6]
  GGT Increase - Activity Score: Inactive
  GGT Increase - Index Value: 0
  GGT Increase - Number of Reports: < 4

## CCCCC(=O)N(Cc1ccc(-c2ccccc2-c2nnn[nH]2)cc1)[C@H](C(=O)O)C(C)C
Hepatotoxicity [1]
  Composite Activity - Active: 0
  Composite Activity - Marginal: 0
  Composite Activity - Score: Inactive
Hepatotoxicity [2]
  Alkaline Phosphatase Increase - Activity Score: Inactive
  Alkaline Phosphatase Increase - Index Value: 0
  Alkaline Phosphatase Increase - Number of Reports: < 4
Hepatotoxicity [3]
  SGOT Increase - Activity Score: Inactive
  SGOT Increase - Index Value: 5
  SGOT Increase - Number of Reports: < 4
Hepatotoxicity [4]
  SGPT Increase - Activity Score: Inactive
  SGPT Increase - Index Value: 7.6
  SGPT Increase - Number of Reports: < 4
Hepatotoxicity [5]
  LDH Increase - Activity Score: Inactive
  LDH Increase - Index Value: 0
  LDH Increase - Number of Reports: < 4
Hepatotoxicity [6]
  GGT Increase - Activity Score: Inactive
  GGT Increase - Index Value: 2.5
  GGT Increase - Number of Reports: < 4

## CC(C)(C)NC(=O)[C@@H]1C[C@@H]2CCCC[C@@H]2CN1C[C@@H](O)[C@H](Cc1ccccc1)NC(=O)[C@H](CC(N)=O)NC(=O)c1ccc2ccccc2n1
Hepatotoxicity [1]; Liver
  Composite Activity - Active: 0
  Composite Activity - Marginal: 0
  Composite Activity - Score: Inactive
Hepatotoxicity [2]
  Alkaline Phosphatase Increase - Activity Score: Inactive
  Alkaline Phosphatase Increase - Index Value: 0
  Alkaline Phosphatase Increase - Number of Reports: < 4
Hepatotoxicity [3]
  SGOT Increase - Activity Score: Inactive
  SGOT Increase - Index Value: 0
  SGOT Increase - Number of Reports: < 4
Hepatotoxicity [4]
  SGPT Increase - Activity Score: Inactive
  SGPT Increase - Index Value: 0
  SGPT Increase - Number of Reports: < 4
Hepatotoxicity [5]
  LDH Increase - Activity Score: Inactive
  LDH Increase - Index Value: 0
  LDH Increase - Number of Reports: < 4
Hepatotoxicity [6]
  GGT Increase - Activity Score: Inactive
  GGT Increase - Index Value: 0
  GGT Increase - Number of Reports: < 4

## O=C(O)[C@@H](S)[C@@H](S)C(=O)O
Hepatotoxicity [1]
  Composite Activity - Active: 4
  Composite Activity - Marginal: 0
  Composite Activity - Score: Active
Hepatotoxicity [2]
  Alkaline Phosphatase Increase - Activity Score: Active
  Alkaline Phosphatase Increase - Index Value: 175.4
  Alkaline Phosphatase Increase - Number of Reports: >= 4
Hepatotoxicity [3]
  SGOT Increase - Activity Score: Active
  SGOT Increase - Index Value: 175.4
  SGOT Increase - Number of Reports: >= 4
Hepatotoxicity [4]
  SGPT Increase - Activity Score: Active
  SGPT Increase - Index Value: 131.6
  SGPT Increase - Number of Reports: < 4
Hepatotoxicity [5]
  LDH Increase - Activity Score: Inactive
  LDH Increase - Index Value: 43.9
  LDH Increase - Number of Reports: < 4
Hepatotoxicity [6]
  GGT Increase - Activity Score: Active
  GGT Increase - Index Value: 87.7
  GGT Increase - Number of Reports: < 4

## COc1ccc(-c2ccc3cc(C(=O)O)ccc3c2)cc1C12CC3CC(CC(C3)C1)C2
Hepatotoxicity [1]
  Composite Activity - Active: 0
  Composite Activity - Marginal: 0
  Composite Activity - Score: Inactive
Hepatotoxicity [2]
  Alkaline Phosphatase Increase - Activity Score: Inactive
  Alkaline Phosphatase Increase - Index Value: 0
  Alkaline Phosphatase Increase - Number of Reports: < 4
Hepatotoxicity [3]
  SGOT Increase - Activity Score: Inactive
  SGOT Increase - Index Value: 0
  SGOT Increase - Number of Reports: < 4
Hepatotoxicity [4]
  SGPT Increase - Activity Score: Inactive
  SGPT Increase - Index Value: 0
  SGPT Increase - Number of Reports: < 4
Hepatotoxicity [5]
  LDH Increase - Activity Score: Inactive
  LDH Increase - Index Value: 0
  LDH Increase - Number of Reports: < 4
Hepatotoxicity [6]
  GGT Increase - Activity Score: Inactive
  GGT Increase - Index Value: 0
  GGT Increase - Number of Reports: < 4

## CNS(=O)(=O)Cc1ccc2[nH]cc(CCN(C)C)c2c1
Hepatotoxicity [1]
  Composite Activity - Active: 0
  Composite Activity - Marginal: 0
  Composite Activity - Score: Inactive
Hepatotoxicity [2]
  Alkaline Phosphatase Increase - Activity Score: Inactive
  Alkaline Phosphatase Increase - Index Value: 0.1
  Alkaline Phosphatase Increase - Number of Reports: >= 4
Hepatotoxicity [3]
  SGOT Increase - Activity Score: Inactive
  SGOT Increase - Index Value: 0.3
  SGOT Increase - Number of Reports: >= 4
Hepatotoxicity [4]
  SGPT Increase - Activity Score: Inactive
  SGPT Increase - Index Value: 0.3
  SGPT Increase - Number of Reports: >= 4
Hepatotoxicity [5]
  LDH Increase - Activity Score: Inactive
  LDH Increase - Index Value: 0.1
  LDH Increase - Number of Reports: >= 4
Hepatotoxicity [6]
  GGT Increase - Activity Score: Inactive
  GGT Increase - Index Value: 0.1
  GGT Increase - Number of Reports: < 4

## COc1ccc(CC2c3cc(OC)c(OC)cc3CC[N+]2(C)CCC(=O)OCCCCCOC(=O)CC[N+]2(C)CCc3cc(OC)c(OC)cc3C2Cc2ccc(OC)c(OC)c2)cc1OC (stereo unspecified)
Hepatotoxicity [1]
  Composite Activity - Active: 0
  Composite Activity - Marginal: 0
  Composite Activity - Score: Inactive
Hepatotoxicity [2]
  Alkaline Phosphatase Increase - Activity Score: Inactive
  Alkaline Phosphatase Increase - Index Value: 0
  Alkaline Phosphatase Increase - Number of Reports: < 4
Hepatotoxicity [3]
  SGOT Increase - Activity Score: Inactive
  SGOT Increase - Index Value: 0
  SGOT Increase - Number of Reports: < 4
Hepatotoxicity [4]
  SGPT Increase - Activity Score: Inactive
  SGPT Increase - Index Value: 0
  SGPT Increase - Number of Reports: < 4
Hepatotoxicity [5]
  LDH Increase - Activity Score: Inactive
  LDH Increase - Index Value: 0
  LDH Increase - Number of Reports: < 4
Hepatotoxicity [6]
  GGT Increase - Activity Score: Inactive
  GGT Increase - Index Value: 0
  GGT Increase - Number of Reports: < 4

## CC1=C(CC(=O)O)c2cc(F)ccc2/C1=C\c1ccc([S+](C)[O-])cc1 (stereo unspecified)
Hepatotoxicity [1]
  Composite Activity - Active: 0
  Composite Activity - Marginal: 0
  Composite Activity - Score: Inactive
Hepatotoxicity [2]
  Alkaline Phosphatase Increase - Activity Score: Inactive
  Alkaline Phosphatase Increase - Index Value: 0
  Alkaline Phosphatase Increase - Number of Reports: < 4
Hepatotoxicity [3]
  SGOT Increase - Activity Score: Inactive
  SGOT Increase - Index Value: 0
  SGOT Increase - Number of Reports: < 4
Hepatotoxicity [4]
  SGPT Increase - Activity Score: Inactive
  SGPT Increase - Index Value: 0
  SGPT Increase - Number of Reports: < 4
Hepatotoxicity [5]
  LDH Increase - Activity Score: Inactive
  LDH Increase - Index Value: 0
  LDH Increase - Number of Reports: < 4
Hepatotoxicity [6]
  GGT Increase - Activity Score: Inactive
  GGT Increase - Index Value: 0
  GGT Increase - Number of Reports: < 4

## CO/N=C(\C(=O)N[C@@H]1C(=O)N2C(C(=O)[O-])=C(C[N+]3(C)CCCC3)CS[C@H]12)c1csc(N)n1
Hepatotoxicity [1]
  Composite Activity - Active: 1
  Composite Activity - Marginal: 0
  Composite Activity - Score: Inactive
Hepatotoxicity [2]
  Alkaline Phosphatase Increase - Activity Score: Inactive
  Alkaline Phosphatase Increase - Index Value: 1
  Alkaline Phosphatase Increase - Number of Reports: < 4
Hepatotoxicity [3]
  SGOT Increase - Activity Score: Inactive
  SGOT Increase - Index Value: 13.7
  SGOT Increase - Number of Reports: < 4
Hepatotoxicity [4]
  SGPT Increase - Activity Score: Active
  SGPT Increase - Index Value: 68.4
  SGPT Increase - Number of Reports: >= 4
Hepatotoxicity [5]
  LDH Increase - Activity Score: Inactive
  LDH Increase - Index Value: 27.4
  LDH Increase - Number of Reports: < 4
Hepatotoxicity [6]
  GGT Increase - Activity Score: Inactive
  GGT Increase - Index Value: 27.4
  GGT Increase - Number of Reports: < 4

## CC(C)(C)NC(=O)[C@@H]1CN(Cc2cccnc2)CCN1C[C@@H](O)C[C@@H](Cc1ccccc1)C(=O)N[C@H]1c2ccccc2C[C@H]1O.O
Hepatotoxicity [1]
  Composite Activity - Active: 5
  Composite Activity - Marginal: 0
  Composite Activity - Score: Active
Hepatotoxicity [2]
  Alkaline Phosphatase Increase - Activity Score: Active
  Alkaline Phosphatase Increase - Index Value: 54.8
  Alkaline Phosphatase Increase - Number of Reports: >= 4
Hepatotoxicity [3]
  SGOT Increase - Activity Score: Active
  SGOT Increase - Index Value: 137
  SGOT Increase - Number of Reports: >= 4
Hepatotoxicity [4]
  SGPT Increase - Activity Score: Active
  SGPT Increase - Index Value: 116.4
  SGPT Increase - Number of Reports: >= 4
Hepatotoxicity [5]
  LDH Increase - Activity Score: Active
  LDH Increase - Index Value: 44.5
  LDH Increase - Number of Reports: >= 4
Hepatotoxicity [6]
  GGT Increase - Activity Score: Active
  GGT Increase - Index Value: 13.7
  GGT Increase - Number of Reports: < 4

## C=C1CC[C@@]2(O)[C@H]3Cc4ccc(O)c5c4[C@@]2(CCN3CC2CC2)[C@H]1O5
Hepatotoxicity [1]
  Composite Activity - Active: 0
  Composite Activity - Marginal: 0
  Composite Activity - Score: Inactive
Hepatotoxicity [2]
  Alkaline Phosphatase Increase - Activity Score: Inactive
  Alkaline Phosphatase Increase - Index Value: 0
  Alkaline Phosphatase Increase - Number of Reports: < 4
Hepatotoxicity [3]
  SGOT Increase - Activity Score: Inactive
  SGOT Increase - Index Value: 0
  SGOT Increase - Number of Reports: < 4
Hepatotoxicity [4]
  SGPT Increase - Activity Score: Inactive
  SGPT Increase - Index Value: 0
  SGPT Increase - Number of Reports: < 4
Hepatotoxicity [5]
  LDH Increase - Activity Score: Inactive
  LDH Increase - Index Value: 0
  LDH Increase - Number of Reports: < 4
Hepatotoxicity [6]
  GGT Increase - Activity Score: Inactive
  GGT Increase - Index Value: 0
  GGT Increase - Number of Reports: < 4

## C[C@H]1O[C@H](O[C@H]2[C@H](O)[C@@H](O)[C@@H](O[C@H]3[C@H](O)[C@@H](O)C(O)O[C@@H]3CO)O[C@@H]2CO)[C@H](O)[C@@H](O)[C@@H]1N[C@H]1C=C(CO)[C@@H](O)[C@H](O)[C@H]1O (stereo partly specified) [ACARBOSE]
Hepatotoxicity [1]
  Composite Activity - Active: 3
  Composite Activity - Marginal: 0
  Composite Activity - Score: Active
Hepatotoxicity [2]
  Alkaline Phosphatase Increase - Activity Score: Inactive
  Alkaline Phosphatase Increase - Index Value: 0
  Alkaline Phosphatase Increase - Number of Reports: < 4
Hepatotoxicity [3]
  SGOT Increase - Activity Score: Active
  SGOT Increase - Index Value: 5.2
  SGOT Increase - Number of Reports: >= 4
Hepatotoxicity [4]
  SGPT Increase - Activity Score: Active
  SGPT Increase - Index Value: 5.2
  SGPT Increase - Number of Reports: >= 4
Hepatotoxicity [5]
  LDH Increase - Activity Score: Inactive
  LDH Increase - Index Value: 2.6
  LDH Increase - Number of Reports: < 4
Hepatotoxicity [6]
  GGT Increase - Activity Score: Active
  GGT Increase - Index Value: 4.3
  GGT Increase - Number of Reports: >= 4
